Source: ChEMBL document CHEMBL3885881, “DrugMatrix”

Species on record: Rattus norvegicus
Assay: DrugMatrix - Regimen: Daily Repeat
Type: toxicity, organism-based, Sprague-Dawley
Parameters: regimen Daily Repeat, gender Male, age 6-8 weeks
Conditions: in vivo, po, route oral GAVAGE, vehicle .5 % CMC; for ABSOLUTE BASOPHIL / ABSOLUTE EOSINOPHIL / ABSOLUTE LYMPHOCYTE / ABSOLUTE MONOCYTE / ABSOLUTE SEGMENTED NEUTROPHIL / BASOPHIL / EOSINOPHIL / HEMATOCRIT / LEUKOCYTE COUNT / LYMPHOCYTE / MEAN CORPUSCULAR HEMOGLOBIN / MEAN CORPUSCULAR HEMOGLOBIN CONCENTRATION / MEAN CORPUSCULAR VOLUME / MONOCYTE / NEUTROPHIL / NUCLEATED RED BLOOD CELLS / PLATELET COUNT: tissue Blood; for ALANINE AMINOTRANSFERASE / ALBUMIN / ALKALINE PHOSPHATASE / ASPARTATE AMINOTRANSFERASE / BLOOD UREA NITROGEN / CARBON DIOXIDE / CHLORIDE / CHOLESTEROL / CREATININE / GLUCOSE / LACTATE DEHYDROGENASE / LIPASE / PHOSPHORUS / SODIUM / TOTAL BILIRUBIN / TOTAL PROTEIN / URIC ACID: tissue Plasma
[1] = 23 mg/kg, 120 h, dose level High, time 5 day
[2] = […], 72 h, dose 2.5 mg/Kg, dose level Low, time 3 day
[3] = […], 120 h, dose 2.5 mg/Kg, dose level Low, time 5 day

**Q.** What does the source list for `Cc1cc2c(s1)Nc1ccccc1N=C2N1CCN(C)CC1` [OLANZAPINE]?
**A.** ABSOLUTE BASOPHIL [1]: 0 CELLS/uL; ABSOLUTE EOSINOPHIL [1]: 52 CELLS/uL; ABSOLUTE LYMPHOCYTE [1]: 13243.33 CELLS/uL; ABSOLUTE MONOCYTE [1]: 98.33 CELLS/uL; ABSOLUTE SEGMENTED NEUTROPHIL [1]: 1106.33 CELLS/uL; BASOPHIL [1]: 0%; EOSINOPHIL [1]: 0.33%; HEMATOCRIT [1]: 38.23%; LEUKOCYTE COUNT [1]: 14.5 x10E3/uL; LYMPHOCYTE [1]: 91.33%; MEAN CORPUSCULAR HEMOGLOBIN [1]: 24.67 pg; MEAN CORPUSCULAR HEMOGLOBIN CONCENTRATION [1]: 39.5 G/DL; MEAN CORPUSCULAR VOLUME [1]: 62.5 fL; MONOCYTE [1]: 0.67%; NEUTROPHIL [1]: 7.67%; NUCLEATED RED BLOOD CELLS [1]: 0 /100WBC; PLATELET COUNT [1]: 1008.67 x10E3/uL; ALANINE AMINOTRANSFERASE [1]: 50 u/L; ALBUMIN [1]: 4.4 G/DL; ALKALINE PHOSPHATASE [1]: 282.67 u/L; ASPARTATE AMINOTRANSFERASE [1]: 108.67 u/L; BLOOD UREA NITROGEN [1]: 22.33 mg/dL; CARBON DIOXIDE [1]: 27.33 mmol/L; CHLORIDE [1]: 104.33 MEQ/L; CHOLESTEROL [1]: 78.33 mg/dL; CREATININE [1]: 0.26 mg/dL; GLUCOSE [1]: 150.33 mg/dL; LACTATE DEHYDROGENASE [1]: 306 u/L; LIPASE [1]: 9.33 u/L; PHOSPHORUS [1]: 11.63 mg/dL; SODIUM [1]: 146.17 MEQ/L; TOTAL BILIRUBIN [1]: 0.27 mg/dL; TOTAL PROTEIN [1]: 6.1 G/DL; URIC ACID [1]: 1.4 mg/dL; ABSOLUTE BASOPHIL [2]: 0 CELLS/uL; ABSOLUTE EOSINOPHIL [2]: 116 CELLS/uL; ABSOLUTE LYMPHOCYTE [2]: 13788.67 CELLS/uL; ABSOLUTE MONOCYTE [2]: 239.33 CELLS/uL; ABSOLUTE SEGMENTED NEUTROPHIL [2]: 1189.33 CELLS/uL; BASOPHIL [2]: 0%; EOSINOPHIL [2]: 1%; HEMATOCRIT [2]: 35.03%; LEUKOCYTE COUNT [2]: 15.33 x10E3/uL; LYMPHOCYTE [2]: 90%; MEAN CORPUSCULAR HEMOGLOBIN [2]: 24.27 pg; MEAN CORPUSCULAR HEMOGLOBIN CONCENTRATION [2]: 38.63 G/DL; MEAN CORPUSCULAR VOLUME [2]: 62.87 fL; MONOCYTE [2]: 1.67%; NEUTROPHIL [2]: 7.33%; NUCLEATED RED BLOOD CELLS [2]: 0 /100WBC; PLATELET COUNT [2]: 1228.33 x10E3/uL; ALANINE AMINOTRANSFERASE [2]: 53.33 u/L; ALBUMIN [2]: 4.17 G/DL; ALKALINE PHOSPHATASE [2]: 352.67 u/L; ASPARTATE AMINOTRANSFERASE [2]: 94.33 u/L; BLOOD UREA NITROGEN [2]: 18 mg/dL; CARBON DIOXIDE [2]: 26.67 mmol/L; CHLORIDE [2]: 101 MEQ/L; CHOLESTEROL [2]: 73.67 mg/dL; CREATININE [2]: 0.19 mg/dL; GLUCOSE [2]: 159.67 mg/dL; LACTATE DEHYDROGENASE [2]: 472.67 u/L; LIPASE [2]: 10.33 u/L; PHOSPHORUS [2]: 12.4 mg/dL; SODIUM [2]: 143.67 MEQ/L; TOTAL BILIRUBIN [2]: 0.23 mg/dL; TOTAL PROTEIN [2]: 5.97 G/DL; URIC ACID [2]: 1.73 mg/dL; ABSOLUTE BASOPHIL [3]: 0 CELLS/uL; ABSOLUTE EOSINOPHIL [3]: 0 CELLS/uL; ABSOLUTE LYMPHOCYTE [3]: 12300.67 CELLS/uL; ABSOLUTE MONOCYTE [3]: 35.33 CELLS/uL; ABSOLUTE SEGMENTED NEUTROPHIL [3]: 2030.67 CELLS/uL; BASOPHIL [3]: 0%; EOSINOPHIL [3]: 0%; HEMATOCRIT [3]: 34.77%; LEUKOCYTE COUNT [3]: 14.37 x10E3/uL; LYMPHOCYTE [3]: 84.67%; MEAN CORPUSCULAR HEMOGLOBIN [3]: 25.5 pg; MEAN CORPUSCULAR HEMOGLOBIN CONCENTRATION [3]: 40.57 G/DL; MEAN CORPUSCULAR VOLUME [3]: 62.8 fL; MONOCYTE [3]: 0.33%; NEUTROPHIL [3]: 15%; NUCLEATED RED BLOOD CELLS [3]: 0 /100WBC; PLATELET COUNT [3]: 1181 x10E3/uL; ALANINE AMINOTRANSFERASE [3]: 50.67 u/L; ALBUMIN [3]: 4.2 G/DL; ALKALINE PHOSPHATASE [3]: 327.67 u/L; ASPARTATE AMINOTRANSFERASE [3]: 96.67 u/L; BLOOD UREA NITROGEN [3]: 18.67 mg/dL; CARBON DIOXIDE [3]: 24.67 mmol/L; CHLORIDE [3]: 101 MEQ/L; CHOLESTEROL [3]: 82 mg/dL; CREATININE [3]: 0.23 mg/dL; GLUCOSE [3]: 160.67 mg/dL; LACTATE DEHYDROGENASE [3]: 448.33 u/L; LIPASE [3]: 9.67 u/L; PHOSPHORUS [3]: 12.83 mg/dL; SODIUM [3]: 144.87 MEQ/L; TOTAL BILIRUBIN [3]: 0.27 mg/dL; TOTAL PROTEIN [3]: 5.9 G/DL; URIC ACID [3]: 1.7 mg/dL
